How the values were obtained:
[1] = LM T1/2, H; type: in vitro ADME; conditions: human, liver microsomes
[2] = LM T1/2, R; type: in vitro ADME; conditions: rat, liver microsomes
[3] = biological target: T1, JAK2 JH1 kinase domain (Homo sapiens, UniProt O60674); assay: KdELECT competition binding assay, JAK2 JH1; conditions: read-out: JAK Binding Selectivity (Kd) Catalytical Domain (JH1) JAK2
T1 construct: purchased Eurofins DiscoverX Corporation (contract assay)
Experimental: The KdELECT competition assays were performed to test the binding affinity of compounds to the JH1 kinase region or JH2 pseudokinase region in TYK2 or JAK by ligand competition with JH1 or JH2 protein segments. The assay was carried out at Eurofins DiscoverX Corporation following the established standard protocol (DiscoverX, San Diego, CA). In this assay, compounds that bind to the kinase or pseudokinase protein regions prevent the protein binding to the immobilized ligand and reduce the amount of kinase matter captured on the solid surface. […] Dissociation constants (Kds) for test compound-kinase interactions are calculated by measuring the amount of kinase captured on the solid support as a function of the test compound concentration. […] The ligated beads were blocked with excess biotin and washed with blocking buffer to remove unbound ligand and to reduce nonspecific binding. […] All reactions were performed in polypropylene 384-well plates with a final volume of 20 μL. […] The beads were then re-suspended in the elution buffer and incubated at room temperature with shaking for 30 minutes. The kinase concentration in the eluant was measured by qPCR. Two replicates were performed and averaged to obtain the Kd measurement.

[4] = test system: JAK1/3-dependent IL2-induced phosphorylation of STAT5 (Tyr694/699) in Kit225 cells; assay: JAK cellular selectivity assay, IL2-pSTAT5 (JAK1/3); type: cell-based; conditions: Homo sapiens; Kit225 cells; read-out: JAK Cellular Selectivity (IC50) IL2-pSTAT5 (JAK1/3)
Experimental: The cells were then ready for the assay after incubating for 2 hours in a humidified, 5% CO2 cell culture incubator at 37°C. […] The curve fit was generated, and statistical analysis was performed using GraphPad Prism. IC50 values were derived by non-linear regression analysis and defined as the compound concentration at which the response level was reduced to half of its maximum relative to a DMSO control.

[5] = PPB, D; type: in vitro ADME; conditions: dog, plasma
[6] = biological target: CYP450 2D6 (Homo sapiens, UniProt P10635); assay: CYP450 inhibition, 2D6; type: in vitro ADME
Chain of CYP450 2D6 (P10635 whole entry): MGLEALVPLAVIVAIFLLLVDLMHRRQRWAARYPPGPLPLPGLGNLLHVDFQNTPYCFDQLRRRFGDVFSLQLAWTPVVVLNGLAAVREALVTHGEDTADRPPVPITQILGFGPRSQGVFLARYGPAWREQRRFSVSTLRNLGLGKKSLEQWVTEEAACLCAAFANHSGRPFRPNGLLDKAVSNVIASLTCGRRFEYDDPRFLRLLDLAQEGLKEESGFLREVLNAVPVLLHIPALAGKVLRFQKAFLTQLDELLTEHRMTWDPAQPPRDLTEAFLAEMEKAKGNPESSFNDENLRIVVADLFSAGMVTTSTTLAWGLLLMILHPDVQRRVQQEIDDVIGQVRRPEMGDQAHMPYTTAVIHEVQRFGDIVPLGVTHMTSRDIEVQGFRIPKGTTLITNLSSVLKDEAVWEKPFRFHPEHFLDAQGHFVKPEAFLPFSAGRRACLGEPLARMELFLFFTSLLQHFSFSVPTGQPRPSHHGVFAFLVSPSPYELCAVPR

[7] = PPB, H; type: in vitro ADME; conditions: human, plasma
[8] = biological target: T2, CYP450 1A2 (Homo sapiens, UniProt P05177); assay: CYP450 inhibition, 1A2; type: in vitro ADME
T2 sequence (P05177 1-516): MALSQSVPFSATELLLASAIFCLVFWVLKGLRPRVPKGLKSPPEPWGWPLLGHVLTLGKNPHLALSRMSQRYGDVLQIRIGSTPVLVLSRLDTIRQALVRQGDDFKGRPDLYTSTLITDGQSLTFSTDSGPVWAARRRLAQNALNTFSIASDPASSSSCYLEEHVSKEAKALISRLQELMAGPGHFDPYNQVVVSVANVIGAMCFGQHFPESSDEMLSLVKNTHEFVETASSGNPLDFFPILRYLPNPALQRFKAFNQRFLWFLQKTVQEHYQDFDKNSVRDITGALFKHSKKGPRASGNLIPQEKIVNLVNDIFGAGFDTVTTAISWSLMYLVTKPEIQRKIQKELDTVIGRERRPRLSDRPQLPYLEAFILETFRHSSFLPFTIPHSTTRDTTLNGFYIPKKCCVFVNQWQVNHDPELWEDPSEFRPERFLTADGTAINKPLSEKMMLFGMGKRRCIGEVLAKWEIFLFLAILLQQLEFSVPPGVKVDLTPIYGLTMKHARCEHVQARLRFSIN

[9] = biological target: CYP450 2C9 (Homo sapiens, UniProt P11712); assay: CYP450 inhibition, 2C9; type: in vitro ADME
Chain of CYP450 2C9 (P11712 whole entry): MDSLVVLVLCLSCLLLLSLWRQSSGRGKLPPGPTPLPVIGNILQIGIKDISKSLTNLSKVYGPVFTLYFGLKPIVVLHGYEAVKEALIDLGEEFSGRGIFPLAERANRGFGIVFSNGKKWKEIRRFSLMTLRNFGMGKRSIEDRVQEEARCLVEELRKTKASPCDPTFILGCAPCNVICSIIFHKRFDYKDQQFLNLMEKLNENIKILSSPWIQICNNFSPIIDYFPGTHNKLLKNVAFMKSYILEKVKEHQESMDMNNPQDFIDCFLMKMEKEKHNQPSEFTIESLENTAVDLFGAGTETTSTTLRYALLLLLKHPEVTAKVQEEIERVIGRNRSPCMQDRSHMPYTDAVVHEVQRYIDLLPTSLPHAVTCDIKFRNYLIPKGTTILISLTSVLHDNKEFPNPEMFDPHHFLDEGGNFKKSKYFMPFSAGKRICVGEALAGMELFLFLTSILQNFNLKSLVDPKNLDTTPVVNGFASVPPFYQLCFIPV

[10] = biological target: T3, JAK3 (Homo sapiens, UniProt P52333); assay: Z'LYTE JAK kinase inhibition assay, JAK3; type: biochemical; conditions: read-out: JAK Catalytic Selectivity (IC50) JAK3
T3 sequence (P52333 1-1124): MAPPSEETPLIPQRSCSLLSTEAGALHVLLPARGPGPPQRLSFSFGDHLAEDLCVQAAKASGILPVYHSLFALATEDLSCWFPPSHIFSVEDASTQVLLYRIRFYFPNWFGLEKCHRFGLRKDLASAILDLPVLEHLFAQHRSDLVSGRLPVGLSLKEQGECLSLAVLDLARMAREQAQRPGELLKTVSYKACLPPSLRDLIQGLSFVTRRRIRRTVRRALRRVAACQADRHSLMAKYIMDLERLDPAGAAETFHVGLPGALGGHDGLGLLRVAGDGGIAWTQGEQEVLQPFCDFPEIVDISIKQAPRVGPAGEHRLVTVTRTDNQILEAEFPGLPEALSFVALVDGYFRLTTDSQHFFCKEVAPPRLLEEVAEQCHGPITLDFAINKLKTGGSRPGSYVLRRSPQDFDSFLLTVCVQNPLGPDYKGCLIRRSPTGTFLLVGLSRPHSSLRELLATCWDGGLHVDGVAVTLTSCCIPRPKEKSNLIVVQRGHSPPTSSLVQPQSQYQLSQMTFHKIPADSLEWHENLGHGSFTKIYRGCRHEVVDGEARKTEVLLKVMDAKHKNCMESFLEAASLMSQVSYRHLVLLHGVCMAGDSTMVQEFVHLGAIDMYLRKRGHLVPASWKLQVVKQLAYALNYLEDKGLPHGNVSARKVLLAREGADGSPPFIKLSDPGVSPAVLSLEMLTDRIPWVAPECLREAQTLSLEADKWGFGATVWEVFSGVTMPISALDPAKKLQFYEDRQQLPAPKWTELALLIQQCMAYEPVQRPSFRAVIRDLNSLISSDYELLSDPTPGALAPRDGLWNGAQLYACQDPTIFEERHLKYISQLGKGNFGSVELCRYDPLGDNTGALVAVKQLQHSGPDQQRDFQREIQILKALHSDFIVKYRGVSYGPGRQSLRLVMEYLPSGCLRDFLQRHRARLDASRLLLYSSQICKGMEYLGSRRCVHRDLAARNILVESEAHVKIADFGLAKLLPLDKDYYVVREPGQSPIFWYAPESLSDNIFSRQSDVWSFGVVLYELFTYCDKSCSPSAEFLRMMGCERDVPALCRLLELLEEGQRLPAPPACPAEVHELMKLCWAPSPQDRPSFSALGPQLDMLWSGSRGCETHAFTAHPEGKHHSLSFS

[11] = PPB, M; type: in vitro ADME; conditions: mouse, plasma

T1 sequence (O60674 849-1124 limits assumed): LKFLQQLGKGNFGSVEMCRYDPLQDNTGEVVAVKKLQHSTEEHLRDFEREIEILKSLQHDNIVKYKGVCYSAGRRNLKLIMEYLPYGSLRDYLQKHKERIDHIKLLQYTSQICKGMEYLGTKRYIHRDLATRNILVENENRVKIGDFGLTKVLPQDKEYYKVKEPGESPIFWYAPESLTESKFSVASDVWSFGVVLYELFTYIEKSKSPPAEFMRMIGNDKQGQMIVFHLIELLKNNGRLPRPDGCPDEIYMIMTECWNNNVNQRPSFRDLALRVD

Row | SMILES | half-life [1] | half-life [2] | Kd [3] | IC50 [4] | fraction unbound [5] | IC50 [6] | fraction unbound [7] | IC50 [8] | IC50 [9] | IC50 [10] | fraction unbound [11]
1 | CNC(=O)c1nnc(NC(=O)C2CC2)c2[nH]c(-c3ccc(N)cc3OC)cc12 [SHR2396] | > 2.32 h | > 1.12 h | > 20 µM | 1.4 ± 1.4 µM | 0.0434 | > 30 µM | 0.0258 | > 30 µM | > 30 µM | > 10 µM | 0.0292
2 | CNC(=O)c1nnc(NC(=O)N2CCC2)cc1Nc1cccc(-c2ncn(C)n2)c1OC [SHR8751] | > 2.32 h | > 1.12 h | 6.5 ± 1.7 µM | > 10 µM | 0.377 | > 30 µM | 0.402 | > 30 µM | > 30 µM | > 10 µM | 0.35
3 | [2H]C([2H])([2H])NC(=O)c1nnc(NC(=O)N2CCC2)cc1Nc1cccc(-c2ncn(C)n2)c1OC [SHR9332] | 0.792 h | > 1.12 h | 2 µM | > 10 µM | 0.325 | > 30 µM | 0.274 | > 30 µM | > 30 µM | > 10 µM | 0.249
